Reference: US12492173B2, “Herbicidal substituted N-tetrazolyl aryl carboxamides” (Bayer Aktiengesellschaft, priority 2019, dated 2025)

What was measured:
Type in all cases: in vivo
Matricaria inodora = assay: Pre-emergence herbicidal action, MATIN; details: dosage 320 g/ha, scored visually after 3 weeks vs untreated controls (100% = plants have died)
How it was run: (§1)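 Greenhouse pre-emergence test: formulated compound (WP or EC) applied in water to the soil covering sown seeds, 600–800 l/ha, 0.2% wetting agent. Scored visually in percent at 3 weeks versus untreated plants.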

Polygonum convolvulus = assay: Pre-emergence herbicidal action, POLCO; details: dosage 320 g/ha, scored visually after 3 weeks vs untreated controls (100% = plants have died)
How it was run: as §1

Stellaria media [1] = assay: Pre-emergence herbicidal action, STEME; details: dosage 320 g/ha, scored visually after 3 weeks vs untreated controls (100% = plants have died)
How it was run: as §1

Abutilon theophrasti = assay: Pre-emergence herbicidal action, ABUTH; details: dosage 320 g/ha, scored visually after 3 weeks vs untreated controls (100% = plants have died)
How it was run: as §1

Stellaria media [2] = assay: Post-emergence herbicidal action, STEME; parameters: key: % herbicidal action vs untreated; 100 = plants died, 0 = like control
How it was run: (§2)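 Sandy loam, greenhouse; one-leaf stage (2–3 wk after sowing); foliar spray of WP or EC, 600–800 l/ha water + 0.2% wetter; visual rating at ~3 wk vs untreated, % effect.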

Veronica persica = assay: Post-emergence herbicidal action, VERPE; parameters: key: % herbicidal action vs untreated; 100 = plants died, 0 = like control
How it was run: as §2

CCCn1nnnc1NC(=O)c1ccc(C(F)(F)F)c(CS(C)(=O)=O)c1OC [Example 3-136]
herbicidal activity MATIN (Matricaria inodora): 100% | herbicidal activity POLCO (Polygonum convolvulus): 80% | herbicidal activity STEME (Stellaria media [1]): 100% | herbicidal activity ABUTH (Abutilon theophrasti): 100% | herbicidal action STEME (Stellaria media [2]; Dosage 80 g/ha): 100 | herbicidal action VERPE (Veronica persica; Dosage 80 g/ha): 100

CCSCc1c(C(F)(F)F)ccc(C(=O)Nc2nnnn2CC)c1Br [Example 2-383]
herbicidal activity MATIN (Matricaria inodora): 100% | herbicidal activity POLCO (Polygonum convolvulus): 90% | herbicidal activity STEME (Stellaria media [1]): 100% | herbicidal activity ABUTH (Abutilon theophrasti): 100% | herbicidal action STEME (Stellaria media [2]; post-emergence, dosage 80 g/ha): 90% | herbicidal action VERPE (Veronica persica; post-emergence, dosage 80 g/ha): 100%

CCSCc1c(C(F)F)ccc(C(=O)Nc2nnnn2C)c1SCC [Example 1-191]
herbicidal activity MATIN (Matricaria inodora): 100% | herbicidal activity POLCO (Polygonum convolvulus): 100% | herbicidal activity STEME (Stellaria media [1]): 100% | herbicidal activity ABUTH (Abutilon theophrasti): 100% | herbicidal action STEME (Stellaria media [2]; Dosage 80 g/ha): 100 | herbicidal action VERPE (Veronica persica; Dosage 80 g/ha): 100

CCn1nnnc1NC(=O)c1ccc(C(F)(F)F)c(CSC)c1Br [Example 2-380]
herbicidal activity MATIN (Matricaria inodora): 100% | herbicidal activity POLCO (Polygonum convolvulus): 90% | herbicidal activity STEME (Stellaria media [1]): 80% | herbicidal activity ABUTH (Abutilon theophrasti): 100% | herbicidal action STEME (Stellaria media [2]; post-emergence, dosage 80 g/ha): 100% | herbicidal action VERPE (Veronica persica; post-emergence, dosage 80 g/ha): 100%

CCCn1nnnc1NC(=O)c1ccc(C(F)(F)F)c(CSCC)c1Br [Example 3-383]
herbicidal activity MATIN (Matricaria inodora): 100% | herbicidal activity POLCO (Polygonum convolvulus): 90% | herbicidal activity STEME (Stellaria media [1]): 100% | herbicidal activity ABUTH (Abutilon theophrasti): 100% | herbicidal action STEME (Stellaria media [2]; Dosage 80 g/ha): 100 | herbicidal action VERPE (Veronica persica; Dosage 80 g/ha): 100

CCCn1nnnc1NC(=O)c1ccc(C(F)F)c(CSC)c1C [Example 3-107]
herbicidal activity MATIN (Matricaria inodora): 100% | herbicidal activity POLCO (Polygonum convolvulus): 90% | herbicidal activity STEME (Stellaria media [1]): 100% | herbicidal activity ABUTH (Abutilon theophrasti): 100% | herbicidal action STEME (Stellaria media [2]; Dosage 80 g/ha): 80 | herbicidal action VERPE (Veronica persica; Dosage 80 g/ha): 100

Cn1nnnc1NC(=O)c1ccc(Cl)c(CS(C)(=O)=O)c1Cl [Example 1-561]
herbicidal activity MATIN (Matricaria inodora): 90% | herbicidal activity POLCO (Polygonum convolvulus): 100% | herbicidal activity STEME (Stellaria media [1]): 90% | herbicidal activity ABUTH (Abutilon theophrasti): 100% | herbicidal action STEME (Stellaria media [2]; Dosage 80 g/ha): 100 | herbicidal action VERPE (Veronica persica; Dosage 80 g/ha): 100

Cc1c(C(=O)Nc2nnnn2C)ccc(C(F)(F)F)c1C[S+](C)[O-] (stereo not drawn) [Example 1-84]
herbicidal activity MATIN (Matricaria inodora): 100% | herbicidal activity POLCO (Polygonum convolvulus): 90% | herbicidal activity STEME (Stellaria media [1]): 100% | herbicidal activity ABUTH (Abutilon theophrasti): 100% | herbicidal action STEME (Stellaria media [2]; post-emergence, dosage 80 g/ha): 100% | herbicidal action VERPE (Veronica persica; post-emergence, dosage 80 g/ha): 100%

CCn1nnnc1NC(=O)c1ccc(C(F)(F)F)c(CS(C)(=O)=O)c1OC [Example 2-136]
herbicidal activity MATIN (Matricaria inodora): 100% | herbicidal activity POLCO (Polygonum convolvulus): 100% | herbicidal activity STEME (Stellaria media [1]): 100% | herbicidal activity ABUTH (Abutilon theophrasti): 100% | herbicidal action STEME (Stellaria media [2]; Dosage 80 g/ha): 100 | herbicidal action VERPE (Veronica persica; Dosage 80 g/ha): 100

Cn1nnnc1NC(=O)c1ccc(C(F)(F)F)c(CS(C)(=O)=O)c1Br [Example 1-382, 2-bromo-3-[(methylsulfonyl)methyl]-N-(1-methyl-1H-tetrazol-5-yl)-4-(trifluoromethyl)benzamide]
herbicidal activity MATIN (Matricaria inodora): 100% | herbicidal activity POLCO (Polygonum convolvulus): 90% | herbicidal activity STEME (Stellaria media [1]): 90% | herbicidal activity ABUTH (Abutilon theophrasti): 100% | herbicidal action STEME (Stellaria media [2]; Dosage 80 g/ha): 100 | herbicidal action VERPE (Veronica persica; Dosage 80 g/ha): 100

CSCc1c(C(F)F)ccc(C(=O)Nc2nnnn2C)c1C [Example 1-107, 4-(difluoromethyl)-2-methyl-3-[(methylsulfanyl)methyl]-N-(1-methyl-1H-tetrazol-5-yl)benzamide]
herbicidal activity MATIN (Matricaria inodora): 100% | herbicidal activity POLCO (Polygonum convolvulus): 80% | herbicidal activity STEME (Stellaria media [1]): 90% | herbicidal activity ABUTH (Abutilon theophrasti): 100% | herbicidal action STEME (Stellaria media [2]; Dosage 80 g/ha): 100 | herbicidal action VERPE (Veronica persica; Dosage 80 g/ha): 100

CCCn1nnnc1NC(=O)c1ccc(C(F)(F)F)c(CS(=O)(=O)CC)c1Br [Example 3-385]
herbicidal activity MATIN (Matricaria inodora): 100% | herbicidal activity POLCO (Polygonum convolvulus): 80% | herbicidal activity STEME (Stellaria media [1]): 90% | herbicidal activity ABUTH (Abutilon theophrasti): 100% | herbicidal action STEME (Stellaria media [2]; Dosage 80 g/ha): 100 | herbicidal action VERPE (Veronica persica; Dosage 80 g/ha): 100

CCn1nnnc1NC(=O)c1ccc(C(F)(F)F)c(CS(C)(=O)=O)c1SC [Example 2-163]
herbicidal activity MATIN (Matricaria inodora): 100% | herbicidal activity POLCO (Polygonum convolvulus): 100% | herbicidal activity STEME (Stellaria media [1]): 90% | herbicidal activity ABUTH (Abutilon theophrasti): 100% | herbicidal action STEME (Stellaria media [2]; Dosage 80 g/ha): 100 | herbicidal action VERPE (Veronica persica; Dosage 80 g/ha): 100

CCS(=O)(=O)Cc1c(C(F)(F)F)ccc(C(=O)Nc2nnnn2C)c1Cl [Example 1-301]
herbicidal activity MATIN (Matricaria inodora): 100% | herbicidal activity POLCO (Polygonum convolvulus): 100% | herbicidal activity STEME (Stellaria media [1]): 90% | herbicidal activity ABUTH (Abutilon theophrasti): 100% | herbicidal action STEME (Stellaria media [2]; Dosage 80 g/ha): 100 | herbicidal action VERPE (Veronica persica; Dosage 80 g/ha): 100
